From patent publication US7524853B2 (Solvay Pharmaceuticals B.V., priority 2003, dated 2009) come the findings set out here.

Format in all cases: cell-based
The target in experiment [1] is T1, 17β-hydroxysteroid dehydrogenase type 1 (17β-HSD type 1) (Homo sapiens, UniProt P14061).
T1 construct: expressed in transfected cells; host or cells: MCF-7
T1 sequence (P14061 1-328): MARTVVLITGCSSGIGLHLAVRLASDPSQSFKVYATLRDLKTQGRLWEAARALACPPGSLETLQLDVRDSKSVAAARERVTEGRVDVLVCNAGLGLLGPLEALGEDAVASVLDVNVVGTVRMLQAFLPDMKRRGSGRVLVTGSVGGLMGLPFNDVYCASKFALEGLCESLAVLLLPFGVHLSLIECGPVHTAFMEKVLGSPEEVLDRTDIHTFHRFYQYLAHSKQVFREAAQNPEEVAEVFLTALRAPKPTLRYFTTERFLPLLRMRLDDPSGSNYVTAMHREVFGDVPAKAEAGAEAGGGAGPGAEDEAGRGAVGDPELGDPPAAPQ
In words: Inhibition of 17β-HSD type 1 in MCF-7 cells stably expressing the isoenzyme (tritium labeled estrone conversion, HPLC). The following applies: MCF-7 cells expressing 17β-HSD type 1, 2 nM tritium labeled estrone; for inhibition at 1 µM / inhibition at 10 µM: MCF7; for inhibition at 1 µM: read-out: % Inhibition HSD1 1 μM; for inhibition at 10 µM: read-out: % Inhibition HSD1 10 μM. In short, it runs like this: (§1)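 Each isoenzyme was stably expressed in its own MCF-7 line, and cells were incubated in growth medium with test compound and 2 nM tritiated substrate: estrone (type 1), estradiol (type 2), androstenedione (type 3). Medium was sampled after a fixed time, TCA-stopped, and analysed by HPLC-flow scintillation; inhibition versus compound-free control, two compound concentrations.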

The target in experiment [2] is T2, 17β-hydroxysteroid dehydrogenase type 2 (17β-HSD type 2) (Homo sapiens, UniProt P37059).
T2 construct: expressed in transfected cells; host or cells: MCF-7
T2 sequence (P37059 1-387): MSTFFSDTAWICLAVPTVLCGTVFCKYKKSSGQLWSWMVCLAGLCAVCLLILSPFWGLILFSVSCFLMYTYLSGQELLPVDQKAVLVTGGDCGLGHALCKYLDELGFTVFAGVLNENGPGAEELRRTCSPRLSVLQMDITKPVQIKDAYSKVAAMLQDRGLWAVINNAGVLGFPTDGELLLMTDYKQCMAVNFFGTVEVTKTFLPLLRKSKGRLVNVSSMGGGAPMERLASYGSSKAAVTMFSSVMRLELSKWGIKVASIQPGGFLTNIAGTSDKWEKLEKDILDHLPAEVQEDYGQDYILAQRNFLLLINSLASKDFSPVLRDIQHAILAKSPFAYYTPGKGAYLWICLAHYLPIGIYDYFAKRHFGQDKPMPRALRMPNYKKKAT
In words: Inhibition of 17β-HSD type 2 in MCF-7 cells stably expressing the isoenzyme (tritium labeled estradiol conversion, HPLC). The following applies: MCF-7 cells expressing 17β-HSD type 2, 2 nM tritium labeled estradiol; for inhibition at 1 µM / inhibition at 10 µM: MCF7; for inhibition at 1 µM: read-out: % Inhibition HSD2 1 μM; for inhibition at 10 µM: read-out: % Inhibition HSD2 10 μM. In short, it runs like this:
as §1

In experiment [3] the target is T3, 17β-hydroxysteroid dehydrogenase type 3 (17β-HSD type 3) (Homo sapiens, UniProt P37058).
T3 construct: expressed in transfected cells; host or cells: MCF-7
T3 sequence (P37058 1-310): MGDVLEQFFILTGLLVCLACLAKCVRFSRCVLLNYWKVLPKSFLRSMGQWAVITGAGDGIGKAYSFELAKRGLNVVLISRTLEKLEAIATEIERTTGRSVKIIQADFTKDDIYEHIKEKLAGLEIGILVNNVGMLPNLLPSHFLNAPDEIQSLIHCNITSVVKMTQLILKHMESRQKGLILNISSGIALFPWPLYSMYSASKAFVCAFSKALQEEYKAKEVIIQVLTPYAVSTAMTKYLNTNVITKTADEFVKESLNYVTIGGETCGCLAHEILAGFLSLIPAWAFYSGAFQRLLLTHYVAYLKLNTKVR
In words: Inhibition of 17β-HSD type 3 in MCF-7 cells stably expressing the isoenzyme (tritium labeled androstenedione conversion, HPLC). Conditions: MCF-7 cells expressing 17β-HSD type 3, 2 nM tritium labeled androstenedione; for inhibition at 1 µM / inhibition at 10 µM: MCF7; for inhibition at 1 µM: read-out: % Inhibition HSD3 1 μM; for inhibition at 10 µM: read-out: % Inhibition HSD3 10 μM. In short, it runs like this: as §1

As a reminder, the inhibition is the drop in the measured response relative to a control, in per cent. Regarding `COc1cccc(-c2nc3sc4c(c3c(=O)n2Cc2ccccc2)CCC(Br)C4=O)c1` (stereo not drawn) [No. 80, 3-Benzyl-7-bromo-2-(m-methoxyphenyl)-6,7-dihydro-3H,5H-benzo[4,5]thieno[2,3-d]pyrimidine-4,8-dione], the inhibition at 1 µM in experiment [1] (1 μM test compound) came to 37%; in experiment [2] (1 μM test compound), 47.3%; in experiment [3] (1 μM test compound), 22.7%. Also, the figures for the inhibition at 10 µM in experiment [1] (10 μM test compound), in experiment [2] (10 μM test compound) and in experiment [3] (10 μM test compound) were 39.3%, 51% and 35.4%, respectively.
Turning to `O=c1c2c3c(sc2nc(CO)n1-c1ccccc1)CCCC3` [No. 38, 2-Hydroxymethyl-3-phenyl-5,6,7,8-tetrahydro-3H-benzo[4,5]thieno[2,3-d]pyrimidin-4-one], the figures for the inhibition at 1 µM in experiment [1] (1 μM test compound), in experiment [2] (1 μM test compound) and in experiment [3] (1 μM test compound) were 0.3%, 11.4% and 14.2%, respectively. Further, the figures for the inhibition at 10 µM in experiment [1] (10 μM test compound), in experiment [2] (10 μM test compound) and in experiment [3] (10 μM test compound) were 23.6%, 33.4% and 17.6%, respectively.
`CCCc1nc2sc3c(c2c(=O)n1Cc1ccccc1OC)CCCC3` [No. 94, 3-(2-Methoxybenzyl)-2-propyl-5,6,7,8-tetrahydro-3H-benzo[4,5]thieno[2,3-d]pyrimidin-4-one]: the inhibition at 1 µM amounted to 16.5% in experiment [1] (1 μM test compound), 25.7% in experiment [2] (1 μM test compound) and 2.2% in experiment [3] (1 μM test compound). Further, the inhibition at 10 µM in experiment [1] (10 μM test compound) amounted to 27.2%; in experiment [2] (10 μM test compound), 31.5%; in experiment [3] (10 μM test compound), 21.1%.
For the molecule `COc1cc(-c2nc3sc4c(OC(C)=O)cccc4c3c(=O)n2Cc2ccccc2)c(Br)c(OC)c1OC` [No. 50, Acetic acid 3-benzyl-2-(2-bromo-3,4,5-trimethoxyphenyl)-4-oxo-3,4-dihydro-benzo[4,5]thieno[2,3-d]pyrimidin-8-yl ester], the inhibition at 1 µM in experiment [1] (1 μM test compound) came out at 34.4%; in experiment [2] (1 μM test compound), 32.4%; in experiment [3] (1 μM test compound), 32.9%. Also, the inhibition at 10 µM in experiment [1] (10 μM test compound) turned out to be 65.8%; in experiment [2] (10 μM test compound) it was 39%; in experiment [3] (10 μM test compound), 75.8%.
Regarding `O=C1CCCc2c1sc1nc(-c3ccccc3)n(Cc3ccccc3)c(=O)c21` [No. 57, 3-Benzyl-2-phenyl-6,7-dihydro-3H,5H-benzo[4,5]thieno[2,3-d]pyrimidine-4,8-dione], the inhibition at 1 µM was 23% in experiment [1] (1 μM test compound), 17.5% in experiment [2] (1 μM test compound) and 19.7% in experiment [3] (1 μM test compound). In addition, the inhibition at 10 µM amounted to 47.3% in experiment [1] (10 μM test compound), 28.5% in experiment [2] (10 μM test compound) and 57.3% in experiment [3] (10 μM test compound).
Regarding `COc1ccc(-c2nc3sc4c(Oc5ccccc5)c(CO)ccc4c3c(=O)n2Cc2ccccc2)cc1` [No. 20, 3-Benzyl-7-hydroxymethyl-2-(p-methoxyphenyl)-8-phenoxy-3H-benzo[4,5]thieno[2,3-d]pyrimidin-4-one], the figures for the inhibition at 1 µM in experiment [1] (1 μM test compound), in experiment [2] (1 μM test compound) and in experiment [3] (1 μM test compound) were 26%, -1.7% and 9.9%, respectively. In addition, the inhibition at 10 µM in experiment [1] (10 μM test compound) was 37.5%; in experiment [2] (10 μM test compound) it was 16.6%; in experiment [3] (10 μM test compound), 61.1%.
`COc1cc(-c2nc3sc4c(O)c(Br)ccc4c3c(=O)n2Cc2ccccc2)c(Br)c(OC)c1OC` [No. 52, 3-benzyl-7-bromo-2-(2-bromo-3,4,5-trimethoxyphenyl)-8-hydroxy-3H-benzo[4,5]thieno[2,3-d]pyrimidin-4-one]: the results for the inhibition at 1 µM in experiment [1] (1 μM test compound), in experiment [2] (1 μM test compound) and in experiment [3] (1 μM test compound) were 4.7%, 0.1% and -2.4%, respectively. Further, the inhibition at 10 µM in experiment [1] (10 μM test compound) was found to be 11.6%; in experiment [2] (10 μM test compound), 19.1%; in experiment [3] (10 μM test compound), 4.3%.
As to `O=c1c2c(nc(-c3ccc(Br)s3)n1Cc1ccccc1)sc1c(O)cccc12` [No. 68, 3-Benzyl-2-(5-bromothiophen-2-yl)-8-hydroxy-3H-benzo[4,5]thieno[2,3-d]pyrimidin-4-one], the inhibition at 1 µM in experiment [1] (1 μM test compound) was found to be 9%; in experiment [2] (1 μM test compound), 15.5%; in experiment [3] (1 μM test compound) it was 7.3%. Moreover, the inhibition at 10 µM is 21.5% in experiment [1] (10 μM test compound), 49% in experiment [2] (10 μM test compound) and 40.7% in experiment [3] (10 μM test compound).
In the case of `COc1cc(-c2nc3sc4c(c3c(=O)n2CC(C)C)C(Br)CCC4=O)cc(OC)c1OC` (stereo not drawn) [No. 135, 5-Bromo-3-isobutyl-2-(3,4,5-trimethoxyphenyl)-6,7-dihydro-3H,5H-benzo[4,5]thieno[2,3-d]pyrimidine-4,8-dione], the inhibition at 1 µM in experiment [1] (1 μM test compound) turned out to be 54%; in experiment [2] (1 μM test compound), 19.1%; in experiment [3] (1 μM test compound), 21.8%. Moreover, the figures for the inhibition at 10 µM in experiment [1] (10 μM test compound), in experiment [2] (10 μM test compound) and in experiment [3] (10 μM test compound) were 96.6%, 34.6% and 93.1%, respectively.
With `COc1cc(-c2nc3sc4c(c3c(=O)n2Cc2ccccc2)C(C)CC(Br)C4=O)c(Br)c(OC)c1OC` (stereo not drawn) [No. 685, 3-Benzyl-7-bromo-2-(2-bromo-3,4,5-trimethoxyphenyl)-5-methyl-6,7-dihydro-3H,5H-benzo[4,5]thieno[2,3-d]pyrimidine-4,8-dione], the inhibition at 1 µM is 16.6% in experiment [1] (1 μM test compound), 22.7% in experiment [2] (1 μM test compound) and 5.1% in experiment [3] (1 μM test compound). Besides, the inhibition at 10 µM in experiment [1] (10 μM test compound) amounted to 31.2%; in experiment [2] (10 μM test compound), 19.9%; in experiment [3] (10 μM test compound) it was 13.8%.
Take `O=c1c2c(nc(CCC3CCCC3)n1CCc1cccs1)sc1c(O)cccc12` [No. 643]: the “% Inhibition HSD1 1 μM” value in experiment [1] (1 μM test compound) is 15.7%. The “% Inhibition HSD1 10 μM” value in experiment [1] (10 μM test compound) is given as 34.2%. Also, the “% Inhibition HSD2 1 μM” value in experiment [2] (1 μM test compound) was determined as 20.1%. For the same molecule, the “% Inhibition HSD2 10 μM” value in experiment [2] (10 μM test compound) came out at 43.3%. In addition, in experiment [3] (1 μM test compound), the “% Inhibition HSD3 1 μM” value came out at 23.4%. For the same molecule, the “% Inhibition HSD3 10 μM” value in experiment [3] (10 μM test compound) came out at 46.1%.
In the case of `COc1cc(-c2nc3sc4c(Oc5ccccc5)c(C=O)ccc4c3c(=O)n2Cc2ccccc2)cc(OC)c1OC` [No. 5, 3-Benzyl-4-oxo-8-phenoxy-2-(3,4,5-trimethoxyphenyl)-3,4-dihydro-benzo[4,5]thieno[2,3-d]pyrimidine-7-carbaldehyde], the values for the inhibition at 1 µM in experiment [1] (1 μM test compound), in experiment [2] (1 μM test compound) and in experiment [3] (1 μM test compound) were -1%, -0.9% and 9.4%, respectively. Moreover, the figures for the inhibition at 10 µM in experiment [1] (10 μM test compound), in experiment [2] (10 μM test compound) and in experiment [3] (10 μM test compound) were 26.1%, 17% and 9.1%, respectively.
Take `CCCc1nc2sc3c(O)cccc3c2c(=O)n1Cc1cc(Br)ccc1OC` [No. 98]: the inhibition at 1 µM is 28.2% in experiment [1] (1 μM test compound), 46.6% in experiment [2] (1 μM test compound) and 16.6% in experiment [3] (1 μM test compound). Also, the inhibition at 10 µM in experiment [1] (10 μM test compound) is 69.1%; in experiment [2] (10 μM test compound), 82.8%; in experiment [3] (10 μM test compound), 63.3%.
Take `O=C1c2sc3nc(-c4ccc(Br)s4)n(Cc4ccccc4)c(=O)c3c2CCC1Br` (stereo not drawn) [No. 65, 3-Benzyl-7-bromo-2-(5-bromothiophen-2-yl)-6,7-dihydro-3H,5H-benzo[4,5]thieno[2,3-d]pyrimidine-4,8-dione]: the inhibition at 1 µM in experiment [1] (1 μM test compound) worked out at 1.2%; in experiment [2] (1 μM test compound) it was 19.2%; in experiment [3] (1 μM test compound), 5%. The values for the inhibition at 10 µM in experiment [1] (10 μM test compound), in experiment [2] (10 μM test compound) and in experiment [3] (10 μM test compound) were 7.8%, 34.6% and 38%, respectively.
